Experimental data published in patent publication EP3130339A1, “A COMPOUND FOR USE IN THE TREATMENT OF COMORBID ANXIETY DISORDER AND DEPRESSION DISORDER” (Aché Laboratórios Farmacêuticos S.A., priority 2015, dated 2017).
Values joined by “and” are separate entries in the source; they are usually repeats but may differ in a detail not shown here. Equal entries are not always repeated.

Columns and labels:
Assay type in all cases: in vivo
[1] = system: mice (RJ:NMRI, males); experiment: Bright/dark box test (clear/dark transition test); conditions: for permanence time in the clear compartment (result in words): summary of Table 2 over the doses tested, i.p.
Description: This model, also known as clear/dark transition test, is characterized as a model of conflict, based on the natural tendency to explore new environments versus avoidance of doing so, due to the potential possibility of the presence of aversive stimuli. It is an animal model based on independent behavior of conditioning, therefore, there is no need of learning. In rodents, this model is grounded in their natural aversion to excessively clear environments. This aversion is measured from the ansiogenic component expressed by lower exposure of the animal to the clear compartment.
The method employed followed the procedure described by Crawley and Goodwin (Pharmacol. Biochem. Behav. 1981, 15, 695-699).
The animals were placed on the clear field of a box comprising two compartments, one being illuminate and open (25 x 27 x 27 cm) and the other being dark and close (20 x 27 x 27 cm). Data on the length of stay in each compartment were collected over the three-minute test.
This test aimed at obtaining a comparison profile of response of Compound (A) (3-(2-(-4-(2-methoxyphenyl)piperazin-1-yl)ethyl)quinazolin-4(3H)-one and Compound (B) 3-(2-(4-(2-cyanophenyl)piperazin-1-yl)ethyl)quinazolin-4(3H)-one with known compounds that act by different mechanisms. The comparative compounds were alprazolam (benzodiazepine), paroxetine (ISRS-type antidepressant), venlafaxine (IRSN-type antidepressant) and agomelatine (antidepressant that acts on melatonin and serotonin 5-HT2C receptor). The following doses were employed in this study: Table 1: Tested compounds, concentrations and route of administration.
In this blind study, ten mice (RJ:NMRI, males) were employed per group. Clobazam (12 mg/Kg, i.p. route) was administered under the same study conditions as the reference compound. All compounds were administered 30 minutes before the test.
The test data of the response of substances were analyzed comparing the groups treated with the control vehicle using one-way ANOVA followed by post-hoc analysis of Dunnett's test. The data of the reference substance obtained were analyzed using unpaired Student's t test.

[2] = system: Mice; experiment: Sphere hiding test; conditions: for number of hidden spheres (result in words): summary of Table 4 over the doses tested
Description: This test is based on the natural aversive behavior to glass and marble of rodents, where the presence of these objects triggers the action of burying (hiding). In this test, there are potential behavioral changes of medicines that may promote an ansiogenic or anxiolytic profile. This is determined by the increase or decrease of the behavior of hiding glass spheres ("marbles") that are randomly distributed on the surface of a box lined with sawdust. The increase of the number of covered balls is an indicative of anxiety, since it is supposed to represent a foreign agent to the animal, whose presence may pose threat. The administration of anxiolytics medicines decreases the number of spheres buried in non-sedative doses.
The method employed followed the procedure described by Broekkamp et al. (Eur. J. Pharmacol., 1986, 126, 223-229).
Mice were individually placed in transparent plastic cages (33 x 21 x 18 cm), with the floor covered by a 5 cm layer of sawdust and 25 glass spheres grouped in the center of the cage. The cage was covered with a perforated plastic cover. Each test cage, along with the glass spheres, were previously impregnated with "mouse odor", and a group of 10 mice was left inside for 15 minutes.
The number of glass spheres covered with sawdust (2/3 or more of the surface) was counted at the end of the 30 minutes of the test.
Each study group consisted of 12 mice. The test was partially blind (substances tested versus vehicle of the tested substances).
This test aimed at obtaining a comparison profile of response of Compound (A) (3-(2-(-4-(2-methoxyphenyl)piperazin-1-yl) ethyl) quinazolin-4 (3H) -one and Compound (B) (3-(2-(4-(2-cyanophenyl)piperazin-1-yl)ethyl)quinazolin-4(3H)-one) with known compounds that act by different mechanisms. The comparative compounds used were alprazolam (benzodiazepine) and paroxetine (ISRS-type antidepressant). These compounds were tested in the following doses: Table 3: Compounds tested, concentrations employed and route of administration.
Fluoxetine (ISRI antidepressant) was used as the positive control substance in the test, and was administered at 32 mg/kg (i.p.).
Quantitative data for the tested substances (number of glass spheres coated with sawdust) were evaluated by comparison with the treated groups using one-way ANOVA followed by planned comparisons against the appropriate vehicles. Data with fluoxetine were compared to the vehicle control using unpaired Student's t test.

[3] = system: Mice; experiment: Non-precipitated withdrawal test
Description: This test aims at assessing how the sudden cessation of the administration of a medicine can be associated with the occurrence of withdrawal identifiable symptoms. The types of symptoms examined are feed changes, weight gain, body temperature and the occurrence of one or behavioral symptoms and others, such as tremor, teeth chattering, wet dog body-shaking, diarrhea or piloerection. The triggering of these signs is a first sign that the substance induces dependence after repeated administration.
The method employed followed the procedure described by Goudie and Leathley (Psychopharmacology 1991, 103: 529-537).
Two mice per cage received two administrations per day (approximately 10:00 hours and 16:00 hours) of the test substance continuously during 19 days (day 1 to day 19), with the last administration occurring next to 10:00 hours of the 20th day. Control animals received the same number of administrations of vehicle. […] During the discontinuation phase, all animals received administration of vehicle once a day.
Additionally to the observations made after discontinuing the medicines, the same measures were taken at day 1 and day 10 of treatment, in addition to the 3 last days (days 18 to 20) immediately prior to administration of the dose in the morning to assess the effects of medicines before discontinuation. After discontinuation, the first observation was performed 24 hours after the last administration and, from then on, every 24 hours (days 21 to 28).
For daily measurements, the animals were evaluated with respect to behavioral changes during 5 minutes (two animals simultaneously observed). Then, their body weights and rectal temperatures were measured. Then, they received the proper treatment and were returned to their cages.
The leftover food in their supporters was weighed immediately after all animals return to their cages (only in the mornings), and food consumption in the previous 24 hours was determined.
The body weights, feed consumption and rectal temperatures were also measured 24 hours before the first administration, as reference values. The treated groups were homogenized with regard to body weights on the day preceding the first administration of the tested substances.
Compound (A) (3-(2-(-4-(2-methoxyphenyl)piperazin-1-yl)ethyl)quinazolin-4 (3H)-one) was evaluated in 3 doses (3, 10 and 30 mg/kg) administered orally (p.o.) and compared to the vehicle (control group).
Chlordiazepoxide (64 mg/kg, p.o.) was administered under the same experimental conditions, and was employed as reference substance in the test.
Paroxetine (15 and 30 mg/kg p.o.) was administered under the same experimental conditions and was used as comparative substance.
The test was blinded. Data were analyzed by comparing substances with their control vehicles employing one-way ANOVA with the group as a factor followed by post-hoc Dunnett tests. Data with the reference substance were analyzed using unpaired Student's t test.

[4] = 4 mg/Kg i.p., 30 minutes before the test
[5] = 4 mg/Kg i.p., 30 minutes before the test, three-minute test
[6] = 8 mg/Kg i.p., 30 minutes before the test
[7] = 8 mg/Kg i.p., 30 minutes before the test, three-minute test
[8] = 16 mg/Kg i.p., 30 minutes before the test
[9] = 16 mg/Kg i.p., 30 minutes before the test, three-minute test
[10] = dose given in Table 4 as (4), i.p.
[11] = dose given in Table 4 as (4), i.p., 25 glass spheres, counted at the end of 30 minutes
[12] = dose given in Table 4 as (8), i.p.
[13] = dose given in Table 4 as (8), i.p., 25 glass spheres, counted at the end of 30 minutes
[14] = withdrawal phase, 64 mg/kg p.o.

With Cc1nnc2n1-c1ccc(Cl)cc1C(c1ccccc1)=NC2 [Alprazolam, alprazolam] the “Time spent in the clear compartment (seconds) (mean ± mean standard error)” value (shortened to “Time spent … (mean ± mean standard error)”) ([1]; mouse, in vivo) was 103.9 ± 11.5 s and 126.9 ± 10.1 s and 112.7 ± 15.5 s, the “Number of Hidden Spheres (mean ± mean standard error)” value (shortened to “Number … (mean ± mean standard error)”) ([2]; mouse, in vivo) was 1,6 ± 1,4 and the “Number of Hidden Spheres Compared to vehicle control %” value (“Number … to vehicle control %” below) ([2]; mouse, in vivo) was -92%. For the same compound, the “amount of food consumed” value ([3]; mouse, in vivo) was “significant reduction in the amount of food consumed on the first day of abstinence”, the “body weight, amount of food consumed and rectal temperature (the three studied parameters)” value ([3]; mouse, in vivo) was “showed no significant changes” and the “withdrawal syndrome after an extended administration regimen” value (“withdrawal syndrome” for short) ([3]; mouse, in vivo, po) was “induces withdrawal syndrome”.

COc1ccccc1N1CCN(CCn2cnc3ccccc3c2=O)CC1 [Compound (A), 3-(2-(-4-(2-methoxyphenyl)piperazin-1-yl)ethyl)quinazolin-4(3H)-one] was tested, and the “Time spent in the clear compartment compared to vehicle %” value (from here on “Time spent … to vehicle %”) [1, 4] was “+8%”, the “Time spent … (mean ± mean standard error)” value [1, 5] was 79.6 ± 15.4 s and the “Time spent … to vehicle %” value [1, 6] was “+111%”. The “Time spent … (mean ± mean standard error)” value [1, 7] was 155.1 ± 14.4 s, the “Time spent … to vehicle %” value [1, 8] was “+93%” and the “Time spent … (mean ± mean standard error)” value [1, 9] was 141.7 ± 13.4 s. For the same compound, the “permanence time in the clear compartment (result in words)” value [1] was “efficient in extending the permanence time in the clear compartment”, the “Number … to vehicle control %” value [2, 10] was -82% and the “Number … (mean ± mean standard error)” value [2, 11] was 3.5 ± 2.4. The “Number … to vehicle control %” value [2, 12] was -98%, the “Number … (mean ± mean standard error)” value [2, 13] was 0.3 ± 0.3 and the “number of hidden spheres (result in words)” value ([2]; i.p.) was “significantly reduced the number of hidden spheres”. The “withdrawal syndrome” value ([3]; mouse, in vivo, po) was “does not induce withdrawal syndrome”.

CN1C(=O)CC(=O)N(c2ccccc2)c2cc(Cl)ccc21 [Clobazam] was tested, and the “Time spent … to vehicle %” value ([1]; 12 mg/Kg i.p., 30 minutes before the test, reference compound) was “+41%” and the “Time spent … (mean ± mean standard error)” value ([1]; 12 mg/Kg i.p., 30 minutes before the test, three-minute test, reference compound) was 104.0 ± 5.2 s.

With CNCCC(Oc1ccc(C(F)(F)F)cc1)c1ccccc1 (centres unmarked) [Fluoxetine] the “Number … to vehicle control %” value ([2]; 32 mg/kg i.p., positive control) was -74% and the “Number … (mean ± mean standard error)” value ([2]; 32 mg/kg i.p., positive control, 25 glass spheres, counted at the end of 30 minutes) was 4.9 ± 2.0.

For COc1ccc2cccc(CCNC(C)=O)c2c1 [Agomelatine, agomelatine], the “Time spent … to vehicle %” value ([1]; 25 mg/Kg i.p., 30 minutes before the test) was -12%, the “Time spent … (mean ± mean standard error)” value ([1]; 25 mg/Kg i.p., 30 minutes before the test, three-minute test) was 64.7 ± 4.9 s and the “Time spent … to vehicle %” value ([1]; 50 mg/Kg i.p., 30 minutes before the test) was -4%. For the same compound, the “Time spent … (mean ± mean standard error)” value ([1]; 50 mg/Kg i.p., 30 minutes before the test, three-minute test) was 70.6 ± 8.5 s, the “Time spent … to vehicle %” value ([1]; 75 mg/Kg i.p., 30 minutes before the test) was -3% and the “Time spent … (mean ± mean standard error)” value ([1]; 75 mg/Kg i.p., 30 minutes before the test, three-minute test) was 71.3 ± 7.3 s.

For CNC1=Nc2ccc(Cl)cc2C(c2ccccc2)=[N+]([O-])C1 [Chlordiazepoxide], the “withdrawal syndrome” value ([3]; overall conclusion of the test, p.o., two administrations per day, day 1 to 20) was “induces a clear withdrawal syndrome”, the “behavioral and psychological effects” value ([3]; treatment phase, 64 mg/kg p.o.) was “ptosis, hyperactivity, jumps and dyspnoea” and the “body weight and amount of food consumed” value ([3]; treatment phase, 64 mg/kg p.o.) was “did not induce significant changes”. For the same compound, the rectal temperature ([3]; treatment phase, 64 mg/kg p.o.) was “slight increase of rectal temperature”, the “behavioral and psychological effects” value [3, 14] was “intensified the psychological behaviors and symptoms, mainly dyspnoea and hyperactivity, inducing occasional straub tail and teeth chattering” and the “body weight, amount of food consumed and rectal temperature” value [3, 14] was “clear reduction in body weight and the amount of food consumed, and a significant increase of rectal temperature”.

For COc1ccc(C(CN(C)C)C2(O)CCCCC2)cc1 (centres unmarked) [Venlafaxine, venlafaxine], the “Time spent … to vehicle %” value [1, 6] was -2%, the “Time spent … (mean ± mean standard error)” value [1, 7] was 72.3 ± 7.3 s and the “Time spent … to vehicle %” value [1, 8] was -12%. The “Time spent … (mean ± mean standard error)” value [1, 9] was 65.1 ± 6.0 s, the “Time spent … to vehicle %” value ([1]; 32 mg/Kg i.p., 30 minutes before the test) was “+7%” and the “Time spent … (mean ± mean standard error)” value ([1]; 32 mg/Kg i.p., 30 minutes before the test, three-minute test) was 78.9 ± 4.9 s.

With N#Cc1ccccc1N1CCN(CCn2cnc3ccccc3c2=O)CC1 [Compound (B), 3-(2-(4-(2-cyanophenyl)piperazin-1-yl)ethyl)quinazolin-4(3H)-one] the “Time spent … to vehicle %” value [1, 4] was “+37%”, the “Time spent … (mean ± mean standard error)” value [1, 5] was 100.9 ± 15.2 s and the “Time spent … to vehicle %” value [1, 6] was “+40%”. For the same compound, the “Time spent … (mean ± mean standard error)” value [1, 7] was 103.0 ± 11.5 s, the “Time spent … to vehicle %” value [1, 8] was “+103%” and the “Time spent … (mean ± mean standard error)” value [1, 9] was 149.3 ± 11.0 s. For the same compound, the “permanence time in the clear compartment (result in words)” value [1] was “efficient in extending the permanence time in the clear compartment”, the “Number … to vehicle control %” value [2, 10] was -42% and the “Number … (mean ± mean standard error)” value [2, 11] was 11.0 ± 3.3. For the same compound, the “Number … to vehicle control %” value [2, 12] was -89%, the “Number … (mean ± mean standard error)” value [2, 13] was 2.1 ± 2.1 and the “number of hidden spheres (result in words)” value ([2]; i.p.) was “significantly reduced the number of hidden spheres”.
